Reference: paper PMC5501782 (Scientific Reports, 2017)
Entries after “also recorded” stand apart in the source; their conditions may differ. Non-standard residues stand in square brackets, D forms with d. Residues, ends and D or L forms follow the SMILES beside them.

Assays:
autophagy = details: cited from earlier work
[1] = tested on: Coxsackievirus (HeLa cells); format: cell-based
Parainfluenza virus = details: 48 h
Herpes simplex virus = details: 48 h
PR8-GFP virus [2] = format: cell-based, influenza A virus
Newcastle disease virus = details: 48 h
[3] = tested on: Influenza virus (H1N1) A/Puerto Rico/8/34; details: Influenza virus A/Puerto Rico/8/34, 48 h
[4] = tested on: influenza virus (A/Puerto Rico/8/34, PR8) expressing green fluorescent protein (PR8-GFP); format: cell-based
[5] = tested on: Porcine epidemic diarrhea virus; details: 48 h
[6] = tested on: Influenza virus (H5N2) A/bird/Korea/W81/2005; details: Influenza virus A/bird/Korea/W81/2005, 48 h
[7] = tested on: Influenza virus (H7N3) A/Aquatic bird/Korea/W44/2005; details: 48 h
Enterovirus71 = format: cell-based
RSV (Hep2 cells) = format: cell-based, respiratory syncytial virus
PR8-GFP virus [8] = tested on: PR8-GFP virus; set-up: species or system influenza A virus
VSV (293T cells) = format: cell-based, vesicular stomatitis virus
Coxsakievirus = format: cell-based
[9] = tested on: Respiratory Syncytial Virus; details: 48 h
[10] = tested on: Vesicular stomatitis virus; details: 48 h
[11] = tested on: Influenza virus (H9N2) A/Chicken/Korea/116/2004; details: 48 h
[12] = tested on: A/EM/Korea/W149/06 (W149, HPAI, H5N1); details: mouse, in vivo

EVVLFLLNVF [Kα2]
autophagy induction (autophagy): robust autophagy inducer

CC(C)C[C@@H](NC(=O)[C@@H](CC(C)C)NC(=O)[C@@H](CC(N)=O)NC(=O)[C@H](NC(=O)[C@@H](Cc1ccccc1)NC(=O)CNC(=O)[C@@H](Cc1ccc(O)cc1)NC(=O)CNC(=O)[C@@H](CCCNC(=N)N)NC(=O)[C@@H](CCCCN)NC(=O)[C@@H](CCCCN)NC(=O)[C@@H](CCCNC(=N)N)NC(=O)[C@@H](CCCNC(=N)N)NC(=O)[C@@H](CCC(N)=O)NC(=O)[C@@H](CCCNC(=N)N)NC(=O)[C@@H](CCCNC(=N)N)NC(=O)[C@H](N)CCCNC(=N)N)C(C)C)C(=O)N[C@H](Cc1ccccc1)C(=O)N[C@H](CC(C)C)C(=O)N[C@@H](C(=O)N[C@@H](C(=O)N[C@H](CCC(=O)O)C(=O)O)C(C)C)C(C)C [TAT-Kα2] (H-[dR][dR][dR][dQ][dR][dR][dK][dK][dR]G[dY]G[dF][dV][dN][dL][dL][dF][dL][dV][dV][dE]-OH)
cytotoxicity or CPE (MDCK cells): no cytotoxicity or CPE
virucidal effect [1]: did not show any virucidal effects
IC50 (Parainfluenza virus): 2.4 µM
IC50 (Herpes simplex virus): 5.7 µM
virus transmission (PR8-GFP virus [2]): suppressed
IC50 (Newcastle disease virus): 0.8 µM
IC50 [3]: 0.5 µM
antiviral action at attachment step [4]: inhibition of virus infection
antiviral action at post-attachment step [4]: unable to inhibit virus infection
antiviral action at pre-attachment step [4]: antiviral activity
infection of MDCK cells by peptide-treated PR8-GFP [4]: strongly diminished
infectivity of PR8-GFP virus [4]: dramatically suppressed; also recorded: no viral infection was detected
reduction in the virus titer [4]: approximately 40%
IC50 [5]: 3.5 µM
IC50 [6]: 0.8 µM
IC50 [7]: 1.2 µM
IC50 (Enterovirus71): No
virucidal effect (Enterovirus71): did not show any virucidal effects
inhibition of infection (RSV (Hep2 cells)): inhibited
infectivity of virus in positive fractions in vitro (PR8-GFP virus [8]): did not
inhibition of infection (VSV (293T cells)): inhibited
IC50 (Coxsakievirus): No
IC50 [9]: 3.4 µM
IC50 [10]: 2.9 µM
IC50 [11]: 0.7 µM
difference in body weight percentage among groups [12]: more than 20%
lung histopathology [12]: intact lung tissues
lung virus titer [12]: no virus was detected
survival rate [12]: 100%
